Laboratory results reported in US20030134859A1 (SANKYO COMPANY, LIMITED, priority 2000, published 2003).
Counter-ions that a name gives are not always drawn.

System: TNF-α production
Assay: Inhibitory activity against cytokine (TNF-α) production in LPS-stimulated RAW264.7 cells
Assay type: cell-based, mouse
Conditions: 1 μM test compound, LPS 10 ng/mL, 15 hr
Method in brief: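 Mouse RAW264.7 macrophages (5,000 cells/well) stimulated with 10 ng/mL LPS (final) and treated with test compound at 1 μM final for 15 h at 37 °C. Supernatant mouse TNF-α measured by ELISA; % inhibition = 100−(A−B)/(C−B)×100, using unstimulated and LPS-only controls.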

SMILES | Inhibitory Activity (%) against TNF-α production [%]
Cc1ccc(S(=O)(=O)Nc2ccc(NC(=O)c3cc([N+](=O)[O-])ccc3Cl)cc2)cc1 [Example 32, N-[4-(4-Methylbenzene)sulfonylaminophenyl]-(2-chloro-5-nitrophenyl)carboxamide] | 19.8
Cc1ccc2nc(NC(=O)c3cc([N+](=O)[O-])ccc3Cl)sc2c1 [Example 141, N-(6-Methybenzothiazol-2-yl)-(2-chloro-5-nitrophenyl)carboxamide] | 15.9
CCCCNc1ccc(-c2ccc(NC(=O)c3cc([N+](=O)[O-])ccc3Cl)cc2)cc1 [Example 203, N-[4-[4-(N-Butylamiino)phenyl]phenyl]-(2-chloro-5-nitrophenyl)carboxamide] | 27.1

Same assay, conditions: 1 μM test compound, LPS 10 ng/mL, 15 hr, 1 µM

SMILES | Inhibitory Activity (%) against TNF-α production [%]
Nc1ccc(-c2ccc(NC(=O)c3cc([N+](=O)[O-])ccc3Cl)cc2)cc1 [Example 192, N-[4-(4-Aminophenyl)phenyl]-(2-chloro-5-nitrophenyl)carboxamide] | 27.9

Same assay, conditions: Mus musculus, 1 μM test compound, LPS 10 ng/mL, 15 hr

SMILES | inhibition at 1 µM [%]
O=C(Nc1ccc(-c2ccc([N+](=O)[O-])cc2)cc1)c1cc([N+](=O)[O-])ccc1Cl [Example 9, N-[4-(4-Nitrophenyl)phenyl)-(2-chloro-5-nitrophenyl)carboxamide] | 34
O=C(Nc1ccc([N+](=O)[O-])cc1)c1cc([N+](=O)[O-])ccc1Cl [Example 23, N-(4-Nitrophenyl)-(2-chloro-5-nitrophenyl)carboxamide] | 24.4
O=C(Nc1ccc([N+](=O)[O-])cn1)c1cc([N+](=O)[O-])ccc1Cl [Example 24, N-(5-Nitropyridin-2-yl)-(2-chloro-5-nitrophenyl)carboxamide] | 30.1
O=C(Nc1nc2ccc([N+](=O)[O-])cc2s1)c1cc([N+](=O)[O-])ccc1Cl [Example 34, N-(6-Nitrobenzothiazol-2-yl)-(2-chloro-5-nitrophenyl)carboxamide] | 15.2

Same assay, conditions: Mus musculus, RAW264.7, 15 h, 1 μM test compound, LPS 10 ng/mL

SMILES | inhibition at 1 µM [%]
O=C(Nc1ccc(OC(F)(F)F)cc1)c1cc([N+](=O)[O-])ccc1Cl [Example 18, N-(4-Trifluoromethyloxyphenyl)-(2-chloro-5-nitrophenyl)carboxamide] | 16.8
O=C(Nc1nc(-c2cccs2)cs1)c1cc([N+](=O)[O-])ccc1Cl [Example 36, N-[4-(2-Thienyl)thiazol-2-yl)-(2-chloro-5-nitrophenyl)carboxamide] | 18
O=C(Nc1nc(-c2ccc3ccccc3c2)cs1)c1cc([N+](=O)[O-])ccc1Cl [Example 42, N-[4-(2-Naphthyl)thiazol-2-yl)-(2-chloro-5-nitrophenyl)carboxamide] | 18.8
O=C(Nc1nc(-c2ccc(Cl)c(Cl)c2)cs1)c1cc([N+](=O)[O-])ccc1Cl [Example 43, N-[4-(3,4-Dichlorophenyl)thiazol-2-yl]-(2-chloro-5-nitrophenyl)carboxamide] | 17.7
O=C(Nc1cnc2ccccc2c1)c1cc([N+](=O)[O-])ccc1Cl [Example 55, N-(3-Quinolinyl)-(2-chloro-5-nitrophenyl)carboxamide] | 15.3
O=C(Nc1ccc(Cl)nc1)c1cc([N+](=O)[O-])ccc1Cl [Example 62, N-(6-Chloropyridin-3-yl)-(2-chloro-5-nitrophenyl)carboxamide] | 20.5
Nc1ccc(-c2ccc(NC(=O)c3cc([N+](=O)[O-])ccc3Cl)cc2)cc1 [Example 88, N-[4-(4-Aminophenyl)phenyl]-(2-chloro-5-nitrophenyl)carboxamide mono-hydrochloride] | 28
CS(=O)(=O)Nc1ccc(-c2ccc(NC(=O)c3cc([N+](=O)[O-])ccc3Cl)cc2)cc1 [Example 93, N-[4-[4-(Methanesulfonylamino)phenyl]phenyl]-(2-chloro-5-nitrophenyl)carboxamide] | 15.6
Cc1ccc(S(=O)(=O)Nc2ccc(-c3ccc(NC(=O)c4cc([N+](=O)[O-])ccc4Cl)cc3)cc2)cc1 [Example 94, N-[4-[4-(4-Toluenesulfonylamino)phenyl]phenyl]-(2-chloro-5-nitrophenyl)carboxamide] | 34.8
O=C(Nc1ccc(N2CCCCC2)cc1)c1cc([N+](=O)[O-])ccc1Cl [Example 114, N-[4-(Piperidin-1-yl)phenyl]-(2-chloro-5-nitrophenyl)carboxamide] | 16.8
CC(=O)Nc1ccc(-c2ccc(NC(=O)c3cc([N+](=O)[O-])ccc3Cl)cc2)cc1 [Example 118, N-[4-(4-Acetylaminophenyl)phenyl]-(2-chloro-5-nitrophenyl)carboxamide] | 16.4
Cc1ccc(C(=O)Nc2nc3ccc(NC(=O)c4cc([N+](=O)[O-])ccc4Cl)cc3s2)cc1 [Example 149, N-[2-(4-Methylbenzoylamino)benzothiazol-6-yl]-(2-chloro-5-nitrophenyl)carboxamide] | 18.8
CCc1ccc(S(=O)(=O)Nc2ccc(NC(=O)c3cc([N+](=O)[O-])ccc3Cl)cc2)cc1 [Example 150, N-[4-(4-Ethylbenzenesulfonylamino)phenyl]-(2-chloro-5-nitrophenyl)carboxamide] | 16.2
CC(C)(C)c1cc(NS(=O)(=O)c2ccc(NC(=O)c3cc([N+](=O)[O-])ccc3Cl)cc2)cc(C(C)(C)C)c1O [Example 175, N-[4-[(3,5-di-tert-Butyl-4-hydroxyphenyl)aminosulfonyl]phenyl]-(2-chloro-5-nitrophenyl)carboxamide] | 15.7
CCCN(CCC)c1ccc(NC(=O)c2cc([N+](=O)[O-])ccc2Cl)cc1 [Example 182, N-[4-(N,N-Dipropylamino)phenyl]-(2-chloro-5-nitrophenyl)carboxamide] | 32.8
O=C(Nc1ccc(N2CCN(C(=O)c3ccccc3)CC2)cc1)c1cc([N+](=O)[O-])ccc1Cl [Example 184, N-[4-(4-Benzoylpiperazin-1-yl)phenyl]-(2-chloro-5-nitrophenyl)carboxamide] | 15
CCCCCCN(CC)c1ccc(NC(=O)c2cc([N+](=O)[O-])ccc2Cl)cc1 [Example 188, N-[4-(N-Ethyl-N-hexylamino)phenyl]-(2-chloro-55 nitrophenyl)carboxamide] | 24.2
CC(C)(C)OC(=O)Nc1ccc(-c2csc(NC(=O)c3cc([N+](=O)[O-])ccc3Cl)n2)cc1 [Example 190, N-[4-(4-tert-Butoxycarbonylaminophenyl)thiazol-2-yl]-(2-chloro-5-nitrophenyl)carboxamide] | 33.8
CCCN(CCC)c1ccc(-c2ccc(NC(=O)c3cc([N+](=O)[O-])ccc3Cl)cc2)cc1 [Example 194, N-[4-[4-(N,N-Dipropylamino)phenyl]phenyl]-(2-chloro-5-nitrophenyl)carboxamide] | 18.4
CCCNc1ccc(-c2ccc(NC(=O)c3cc([N+](=O)[O-])ccc3Cl)cc2)cc1 [Example 204, N-[4-[4-(N-Propylamino)phenyl]phenyl]-(2-chloro-5-nitrophenyl)carboxamide] | 32.7
CCNc1ccc(-c2ccc(NC(=O)c3cc([N+](=O)[O-])ccc3Cl)cc2)cc1 [Example 205, N-[4-[4-(N-Ethylamino)phenyl]phenyl]-(2-chloro-5-nitrophenyl)carboxamide] | 34.9
CCCCCN(CCCC)c1ccc(-c2ccc(NC(=O)c3cc([N+](=O)[O-])ccc3Cl)cc2)cc1 [Example 206, N-[4-[4-(N-Butyl-N-pentylamino)phenyl]phenyl]-(2-chloro-5-nitrophenyl)carboxamide] | 27.5
